{"source": "paper PMC5218480", "about": "(PLoS ONE, 2017)", "tested_on": "MV-4-11 cells", "experiment": "Gene expression microarray analysis (Affymetrix PrimeView) and GSEA", "assay_type": "cell-based, human", "set-up": "RFU PODN (11730768_x_at) / Fold change /veh PODN (11730768_x_at) / RFU LINC00158 (11744669_a_at) / Fold change /veh LINC00158 (11744669_a_at) / RFU DUSP10 (11751237_a_at) / Fold change /veh DUSP10 (11751237_a_at) / RFU ID3 (11757404_x_at) / Fold change /veh ID3 (11757404_x_at) / RFU PLEKHG5 (11737974_s_at) / Fold change /veh PLEKHG5 (11737974_s_at) / RFU LRRC4B (11730491_at) / Fold change /veh LRRC4B (11730491_at) / RFU GIMAP4 (11747438_a_at) / Fold change /veh GIMAP4 (11747438_a_at) / RFU KRT8 (11758183_x_at) / Fold change /veh KRT8 (11758183_x_at) / RFU CNN1 (11734310_a_at) / Fold change /veh CNN1 (11734310_a_at) / RFU VPS37D (11726825_at) / Fold change /veh VPS37D (11726825_at) / RFU C10orf10 (11716522_x_at) / Fold change /veh C10orf10 (11716522_x_at) / RFU KIR2DL2 /// KIR2DL4 /// KIR2DL5A /// KIR2DL5B /// KIR2DS1 /// KIR2DS2 /// KIR2DS3 /// KIR2DS4 /// KIR3DL3 /// KIR3DL3 /// KIR3DS1 (11738374_at) / Fold change /veh KIR2DL2 /// KIR2DL4 /// KIR2DL5A /// KIR2DL5B /// KIR2DS1 /// KIR2DS2 /// KIR2DS3 /// KIR2DS4 /// KIR3DL3 /// KIR3DL3 /// KIR3DS1 (11738374_at) / RFU C1QL1 (11718748_at) / Fold change /veh C1QL1 (11718748_at) / RFU TMPRSS4 (11747572_a_at) / Fold change /veh TMPRSS4 (11747572_a_at) / RFU HAMP (11756126_x_at) / Fold change /veh HAMP (11756126_x_at) / RFU RNFT2 (11725882_a_at) / Fold change /veh RNFT2 (11725882_a_at) / RFU NR4A2 (11747474_a_at) / Fold change /veh NR4A2 (11747474_a_at) / RFU ABCC12 (11746883_a_at) / Fold change /veh ABCC12 (11746883_a_at) / RFU TMEM136 (11760407_x_at) / Fold change /veh TMEM136 (11760407_x_at) / RFU CLDN22 /// WWC2 (11732394_at) / Fold change /veh CLDN22 /// WWC2 (11732394_at) / RFU HLA-DPB1 (11760878_x_at) / Fold change /veh HLA-DPB1 (11760878_x_at) / RFU SPINT1 (11716480_a_at) / Fold change /veh SPINT1 (11716480_a_at) / RFU GAP43 (11754022_s_at) / Fold change /veh GAP43 (11754022_s_at) / RFU A4GNT (11735810_at) / Fold change /veh A4GNT (11735810_at) / RFU PRB3 (11715151_x_at) / Fold change /veh PRB3 (11715151_x_at) / RFU TUBB4B (11761932_at) / Fold change /veh TUBB4B (11761932_at) / RFU CAPN14 (11732068_a_at) / Fold change /veh CAPN14 (11732068_a_at) / RFU TMCC2 (11721928_a_at) / Fold change /veh TMCC2 (11721928_a_at) / RFU IRGQ (11745062_a_at) / Fold change /veh IRGQ (11745062_a_at) / RFU FAM174B (11720279_a_at) / Fold change /veh FAM174B (11720279_a_at) / RFU TMPRSS4 (11748680_a_at) / Fold change /veh TMPRSS4 (11748680_a_at) / RFU FAM212B (11763350_a_at) / Fold change /veh FAM212B (11763350_a_at) / RFU PLEKHG5 (11743358_a_at) / Fold change /veh PLEKHG5 (11743358_a_at) / RFU ZSCAN30 (11745921_a_at) / Fold change /veh ZSCAN30 (11745921_a_at) / RFU CMKLR1 (11741424_a_at) / Fold change /veh CMKLR1 (11741424_a_at) / RFU LOC101060620 /// MAPK8IP1 (11723275_at) / Fold change /veh LOC101060620 /// MAPK8IP1 (11723275_at) / RFU SPTSSB (11747773_x_at) / Fold change /veh SPTSSB (11747773_x_at) / RFU PRSS12 (11739890_at) / Fold change /veh PRSS12 (11739890_at) / RFU BIN1 (11741810_x_at) / Fold change /veh BIN1 (11741810_x_at) / RFU WNT11 (11732464_a_at) / Fold change /veh WNT11 (11732464_a_at) / RFU C10orf10 (11716521_a_at) / Fold change /veh C10orf10 (11716521_a_at) / RFU C5orf56 (11738089_at) / Fold change /veh C5orf56 (11738089_at) / RFU CYB561 (11721691_x_at) / Fold change /veh CYB561 (11721691_x_at) / RFU ANKRD19P (11752326_a_at) / Fold change /veh ANKRD19P (11752326_a_at) / RFU OR2T12 /// OR2T33 /// OR2T8 (11738714_s_at) / Fold change /veh OR2T12 /// OR2T33 /// OR2T8 (11738714_s_at) / RFU VCAN (11748164_a_at) / Fold change /veh VCAN (11748164_a_at) / RFU JSRP1 (11732532_at) / Fold change /veh JSRP1 (11732532_at) / RFU KRTAP10-11 (11738290_x_at) / Fold change /veh KRTAP10-11 (11738290_x_at) / RFU MYO3A (11730013_a_at) / Fold change /veh MYO3A (11730013_a_at) / RFU EBF3 (11725865_a_at) / Fold change /veh EBF3 (11725865_a_at) / RFU CAMK2N1 (11719241_x_at) / Fold change /veh CAMK2N1 (11719241_x_at) / RFU C5orf56 (11738088_a_at) / Fold change /veh C5orf56 (11738088_a_at) / RFU OLFML3 (11715873_a_at) / Fold change /veh OLFML3 (11715873_a_at) / RFU LOC100653217 /// NTM (11731650_a_at) / Fold change /veh LOC100653217 /// NTM (11731650_a_at) / RFU MAPK11 (11762145_a_at) / Fold change /veh MAPK11 (11762145_a_at) / RFU FIZ1 (11724087_x_at) / Fold change /veh FIZ1 (11724087_x_at) / RFU OASL (11726364_x_at) / Fold change /veh OASL (11726364_x_at) / RFU SOX15 (11748057_x_at) / Fold change /veh SOX15 (11748057_x_at) / RFU CD79A (11719716_a_at) / Fold change /veh CD79A (11719716_a_at) / RFU HIST1H1D (11736915_at) / Fold change /veh HIST1H1D (11736915_at) / RFU CASKIN2 (11723855_a_at) / Fold change /veh CASKIN2 (11723855_a_at) / RFU LOC730098 (11760151_x_at) / Fold change /veh LOC730098 (11760151_x_at) / RFU OR4N2 (11742367_at) / Fold change /veh OR4N2 (11742367_at) / RFU PRRT2 (11749266_a_at) / Fold change /veh PRRT2 (11749266_a_at) / RFU SNX32 (11753110_a_at) / Fold change /veh SNX32 (11753110_a_at) / RFU CDHR5 (11726645_a_at) / Fold change /veh CDHR5 (11726645_a_at) / RFU RCAN1 (11760418_a_at) / Fold change /veh RCAN1 (11760418_a_at) / RFU FAM167A (11723789_a_at) / Fold change /veh FAM167A (11723789_a_at) / RFU FAM26E (11764081_at) / Fold change /veh FAM26E (11764081_at) / RFU ISYNA1 (11749810_s_at) / Fold change /veh ISYNA1 (11749810_s_at) / RFU ACY1 (11761880_at) / Fold change /veh ACY1 (11761880_at) / RFU 11764098_at / Fold change /veh 11764098_at / RFU SAMD14 (11745864_x_at) / Fold change /veh SAMD14 (11745864_x_at) / RFU NPB (11741838_a_at) / Fold change /veh NPB (11741838_a_at) / RFU TMPRSS6 (11731388_a_at) / Fold change /veh TMPRSS6 (11731388_a_at) / RFU KRTAP10-2 (11738614_at) / Fold change /veh KRTAP10-2 (11738614_at) / RFU ARHGAP8 /// PRR5-ARHGAP8 (11727945_x_at) / Fold change /veh ARHGAP8 /// PRR5-ARHGAP8 (11727945_x_at) / RFU KRTAP5-7 /// NADSYN1 (11734609_at) / Fold change /veh KRTAP5-7 /// NADSYN1 (11734609_at) / RFU RASL12 (11751679_a_at) / Fold change /veh RASL12 (11751679_a_at) / RFU CDKN2B (11736163_a_at) / Fold change /veh CDKN2B (11736163_a_at) / RFU PRF1 (11729649_at) / Fold change /veh PRF1 (11729649_at) / RFU, ZNF638 /// ZNF638-IT1 / Fold change vs veh, ZNF638 /// ZNF638-IT1 / RFU, PANK3 / Fold change vs veh, PANK3 / RFU, SH3YL1 / Fold change vs veh, SH3YL1 / RFU, ZEB2 / Fold change vs veh, ZEB2 / RFU, NRIP1 / Fold change vs veh, NRIP1 / RFU, PTTG1IP / Fold change vs veh, PTTG1IP / RFU, CAPN2 / Fold change vs veh, CAPN2 / RFU, MED14 / Fold change vs veh, MED14 / RFU, SNORA58 / Fold change vs veh, SNORA58 / RFU, C1orf63 / Fold change vs veh, C1orf63 / RFU, LRRFIP1 / Fold change vs veh, LRRFIP1 / RFU, NDUFAF7 / Fold change vs veh, NDUFAF7 / RFU, SLC12A2 / Fold change vs veh, SLC12A2 / RFU, IBTK / Fold change vs veh, IBTK / RFU, ESF1 / Fold change vs veh, ESF1 / Fold change vs veh, TMEM50B / RFU, TAOK1 / Fold change vs veh, TAOK1 / RFU, ACBD3 / Fold change vs veh, ACBD3 / RFU, TMA16 / Fold change vs veh, TMA16 / RFU, RWDD3 / Fold change vs veh, RWDD3 / RFU, BCAT1 / Fold change vs veh, BCAT1 / RFU, EDEM3 / Fold change vs veh, EDEM3 / RFU, TMEM33 / Fold change vs veh, TMEM33 / RFU, WDR75 / Fold change vs veh, WDR75 / RFU, AHCTF1 / Fold change vs veh, AHCTF1 / RFU, TFRC / Fold change vs veh, TFRC / RFU, ZDHHC17 / Fold change vs veh, ZDHHC17 / RFU, NOM1 / Fold change vs veh, NOM1 / RFU, ARL8B / Fold change vs veh, ARL8B / RFU, ZBTB11 / Fold change vs veh, ZBTB11 / RFU, TAMM41 / Fold change vs veh, TAMM41 / RFU, KIAA1704 /// LOC100996395 / Fold change vs veh, KIAA1704 /// LOC100996395 / RFU, ING1 / Fold change vs veh, ING1 / RFU, TRMT61B / Fold change vs veh, TRMT61B / RFU, FUBP3 / Fold change vs veh, FUBP3 / RFU, TP53 / Fold change vs veh, TP53 / RFU, TNKS2 / Fold change vs veh, TNKS2 / RFU, ZFP14 / Fold change vs veh, ZFP14 / RFU, ACTR2 / Fold change vs veh, ACTR2 / RFU, PPP3R1 / Fold change vs veh, PPP3R1 / RFU, PIK3R1 / Fold change vs veh, PIK3R1 / RFU, HNRNPA1 / Fold change vs veh, HNRNPA1 / RFU, RNF170 / Fold change vs veh, RNF170 / RFU, ZNF28 / Fold change vs veh, ZNF28 / RFU, RNGTT / Fold change vs veh, RNGTT / RFU, OGT / Fold change vs veh, OGT / RFU, BRD1 / Fold change vs veh, BRD1 / RFU, MARS / Fold change vs veh, MARS / RFU, ZNF655 / Fold change vs veh, ZNF655 / RFU, FAHD1 / Fold change vs veh, FAHD1 / RFU, BDP1 / Fold change vs veh, BDP1 / RFU, LRRCC1 / Fold change vs veh, LRRCC1 / RFU, ARID1A / Fold change vs veh, ARID1A / RFU, ZNF146 / Fold change vs veh, ZNF146 / RFU, ZNF330 / Fold change vs veh, ZNF330 / RFU, GPN3 / Fold change vs veh, GPN3 / RFU, C9orf123 / Fold change vs veh, C9orf123 / RFU, N4BP2L2 / Fold change vs veh, N4BP2L2 / RFU, ARFIP1 / Fold change vs veh, ARFIP1 / RFU, FAM179B / Fold change vs veh, FAM179B / RFU, BCL10 / Fold change vs veh, BCL10 / RFU, UHRF1BP1L / Fold change vs veh, UHRF1BP1L / RFU, BET1 / Fold change vs veh, BET1 / RFU, CNOT2 / Fold change vs veh, CNOT2 / RFU, ZNF268 / Fold change vs veh, ZNF268 / Fold change vs veh, ZNF507 / RFU, DGCR2 / Fold change vs veh, DGCR2 / RFU, WDSUB1 / Fold change vs veh, WDSUB1 / Fold change vs veh, HSP90B1 /// MIR3652 / RFU, ADSS / Fold change vs veh, ADSS / RFU, GK / Fold change vs veh, GK / RFU, ZNF148 / Fold change vs veh, ZNF148 / RFU, TAF9 / Fold change vs veh, TAF9 / RFU, SLC1A5 / Fold change vs veh, SLC1A5 / RFU, SLMO2 / Fold change vs veh, SLMO2 / RFU, ABCC4 / Fold change vs veh, ABCC4 / RFU, LOC101060439 /// RAP1B / Fold change vs veh, LOC101060439 /// RAP1B / RFU, RFX7 / Fold change vs veh, RFX7 / RFU, GTPBP10 / Fold change vs veh, GTPBP10 / RFU, CNEP1R1 / Fold change vs veh, CNEP1R1 / RFU, BIVM-ERCC5 /// ERCC5 / Fold change vs veh, BIVM-ERCC5 /// ERCC5 / RFU, ILF3 / Fold change vs veh, ILF3 / RFU 11762660_at / Fold change /veh 11762660_at / RFU VCAN (11757783_s_at) / Fold change /veh VCAN (11757783_s_at) / RFU DDX43 (11728927_at) / Fold change /veh DDX43 (11728927_at) / RFU KRT8 (11758188_x_at) / Fold change /veh KRT8 (11758188_x_at) / RFU NKD1 (11759106_at) / Fold change /veh NKD1 (11759106_at) / RFU SRD5A1 (11742802_a_at) / Fold change /veh SRD5A1 (11742802_a_at) / RFU TPSAB1 /// TPSB2 (11721975_s_at) / Fold change /veh TPSAB1 /// TPSB2 (11721975_s_at) / RFU GSTM3 (11746129_a_at) / Fold change /veh GSTM3 (11746129_a_at) / RFU IL23R (11737362_x_at) / Fold change /veh IL23R (11737362_x_at) / RFU TMEM51 (11727254_a_at) / Fold change /veh TMEM51 (11727254_a_at) / RFU PIWIL2 (11732686_x_at) / Fold change /veh PIWIL2 (11732686_x_at) / RFU ORM1 (11744905_x_at) / Fold change /veh ORM1 (11744905_x_at) / RFU CCDC152 (11743942_at) / Fold change /veh CCDC152 (11743942_at) / RFU ECM1 (11717891_a_at) / Fold change /veh ECM1 (11717891_a_at) / RFU IL23R (11748794_a_at) / Fold change /veh IL23R (11748794_a_at) / RFU TNFAIP8L3 (11732012_x_at) / Fold change /veh TNFAIP8L3 (11732012_x_at) / RFU MBOAT4 (11741988_at) / Fold change /veh MBOAT4 (11741988_at) / RFU 11764193_at / Fold change /veh 11764193_at / RFU TMEM53 (11763286_at) / Fold change /veh TMEM53 (11763286_at) / RFU MAGEB2 (11727129_at) / Fold change /veh MAGEB2 (11727129_at) / RFU TMEM200A (11744735_a_at) / Fold change /veh TMEM200A (11744735_a_at) / RFU CCDC152 (11751479_a_at) / Fold change /veh CCDC152 (11751479_a_at) / RFU FAM211A (11726209_a_at) / Fold change /veh FAM211A (11726209_a_at) / RFU RGS16 (11746705_a_at) / Fold change /veh RGS16 (11746705_a_at) / RFU VCAN (11755009_s_at) / Fold change /veh VCAN (11755009_s_at) / RFU RHOB (11743442_s_at) / Fold change /veh RHOB (11743442_s_at) / RFU RGS16 (11720943_a_at) / Fold change /veh RGS16 (11720943_a_at) / RFU RGS16 (11720944_at) / Fold change /veh RGS16 (11720944_at) / RFU, VPS4B / Fold change vs veh, VPS4B / RFU, CREB1 / Fold change vs veh, CREB1 / RFU, DNAJC13 / Fold change vs veh, DNAJC13 / RFU, GNAQ / Fold change vs veh, GNAQ / RFU, CDK5R1 / Fold change vs veh, CDK5R1 / RFU, ZRANB3 / Fold change vs veh, ZRANB3 / RFU, CUL4A / Fold change vs veh, CUL4A / RFU, CCNY / Fold change vs veh, CCNY / RFU, UFL1 / Fold change vs veh, UFL1 / RFU, COG3 / Fold change vs veh, COG3 / RFU, DIAPH2 / Fold change vs veh, DIAPH2 / RFU, SKA2 / Fold change vs veh, SKA2 / RFU, AFF3 / Fold change vs veh, AFF3 / RFU, LMF1 / Fold change vs veh, LMF1 / RFU, IPO11 / Fold change vs veh, IPO11 / RFU, DFFB / Fold change vs veh, DFFB / RFU, FOXP1 / Fold change vs veh, FOXP1 / RFU, CARD8 / Fold change vs veh, CARD8 / RFU, STRN3 / Fold change vs veh, STRN3 / RFU, ADK / Fold change vs veh, ADK / RFU, RASSF2 / Fold change vs veh, RASSF2 / RFU, WIPF1 / Fold change vs veh, WIPF1 / RFU, LARP1B / Fold change vs veh, LARP1B / RFU, RASA1 / Fold change vs veh, RASA1 / RFU, RB1 / Fold change vs veh, RB1 / RFU, PPFIA1 / Fold change vs veh, PPFIA1 / RFU, MAT2A / Fold change vs veh, MAT2A / RFU, CCT5 / Fold change vs veh, CCT5 / RFU, WDR92 / Fold change vs veh, WDR92 / RFU, CUX1 / Fold change vs veh, CUX1 / RFU, TTC7A / Fold change vs veh, TTC7A / RFU, TMEM135 / Fold change vs veh, TMEM135 / RFU, DEPTOR / Fold change vs veh, DEPTOR / RFU, CPM / Fold change vs veh, CPM / RFU, DNAJB6 / Fold change vs veh, DNAJB6 / RFU, CACNA2D3 / Fold change vs veh, CACNA2D3 / RFU, DTX4 / Fold change vs veh, DTX4 / RFU, TFCP2 / Fold change vs veh, TFCP2 / RFU, GMCL1 /// GMCL1P1 / Fold change vs veh, GMCL1 /// GMCL1P1 / RFU, AEBP2 / Fold change vs veh, AEBP2 / RFU, SNHG1 /// SNORD22 /// SNORD25 /// SNORD26 /// SNORD27 /// SNORD28 /// SNORD29 /// SNORD31 / Fold change vs veh, SNHG1 /// SNORD22 /// SNORD25 /// SNORD26 /// SNORD27 /// SNORD28 /// SNORD29 /// SNORD31 / Fold change (Aza/veh), C12orf56 (ProbeSet 11735607_a_at) / Fold change (ACY-1035/veh), C12orf56 (ProbeSet 11735607_a_at) / Fold change (Aza/veh), FGFR1OP (ProbeSet 11751329_s_at) / Fold change (ACY-1035/veh), FGFR1OP (ProbeSet 11751329_s_at) / Fold change (Aza/veh), VPS36 (ProbeSet 11739960_a_at) / Fold change (ACY-1035/veh), VPS36 (ProbeSet 11739960_a_at) / RFU SYPL1 (11715823_x_at) / Fold change /veh SYPL1 (11715823_x_at) / RFU IGFBP7 (11715501_s_at) / Fold change /veh IGFBP7 (11715501_s_at) / RFU REEP3 (11722064_at) / Fold change /veh REEP3 (11722064_at) / RFU IGLL1 (11728026_x_at) / Fold change /veh IGLL1 (11728026_x_at): dose or concentration left out as unconfirmed", "conditions": "ProbeSet 11738335_x_at; LIST B", "data": [{"smiles": "Nc1ccc(-c2cccs2)cc1NC(=O)c1ccc2c(c1)cc(C1CC1)n2CCN1CCOCC1", "note": "[ACY-1035]", "values": [{"measurement": "Fold change vs veh, TP53", "result": 0.84}]}]}
